Consider twelve compounds from ChEMBL document CHEMBL1126477 (Bioorg Med Chem Lett, 1993).

One test deals with T1, Angiotensin II receptor (Rattus norvegicus, UniProt P29089+P25095+P35351).
T1 sequence (P29089 whole entry): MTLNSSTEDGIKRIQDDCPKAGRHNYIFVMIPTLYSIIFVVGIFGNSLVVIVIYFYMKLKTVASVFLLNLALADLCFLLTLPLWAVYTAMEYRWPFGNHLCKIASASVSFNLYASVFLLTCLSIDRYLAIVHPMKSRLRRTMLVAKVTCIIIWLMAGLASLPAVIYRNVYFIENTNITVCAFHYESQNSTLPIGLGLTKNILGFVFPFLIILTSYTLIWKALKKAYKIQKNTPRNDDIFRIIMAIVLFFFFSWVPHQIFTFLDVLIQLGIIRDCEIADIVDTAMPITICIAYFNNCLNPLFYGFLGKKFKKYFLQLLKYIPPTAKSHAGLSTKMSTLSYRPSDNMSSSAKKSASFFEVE
T1 sequence (P25095 whole entry): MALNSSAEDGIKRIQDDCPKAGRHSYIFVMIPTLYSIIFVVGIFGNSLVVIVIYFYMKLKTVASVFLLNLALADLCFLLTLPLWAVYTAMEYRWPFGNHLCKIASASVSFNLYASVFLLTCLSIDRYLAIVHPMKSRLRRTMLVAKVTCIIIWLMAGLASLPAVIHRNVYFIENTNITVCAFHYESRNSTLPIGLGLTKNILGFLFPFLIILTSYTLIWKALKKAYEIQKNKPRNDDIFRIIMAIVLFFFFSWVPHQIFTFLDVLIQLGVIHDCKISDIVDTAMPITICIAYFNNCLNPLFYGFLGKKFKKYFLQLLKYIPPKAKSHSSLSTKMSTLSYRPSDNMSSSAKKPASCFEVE
T1 sequence (P35351 whole entry): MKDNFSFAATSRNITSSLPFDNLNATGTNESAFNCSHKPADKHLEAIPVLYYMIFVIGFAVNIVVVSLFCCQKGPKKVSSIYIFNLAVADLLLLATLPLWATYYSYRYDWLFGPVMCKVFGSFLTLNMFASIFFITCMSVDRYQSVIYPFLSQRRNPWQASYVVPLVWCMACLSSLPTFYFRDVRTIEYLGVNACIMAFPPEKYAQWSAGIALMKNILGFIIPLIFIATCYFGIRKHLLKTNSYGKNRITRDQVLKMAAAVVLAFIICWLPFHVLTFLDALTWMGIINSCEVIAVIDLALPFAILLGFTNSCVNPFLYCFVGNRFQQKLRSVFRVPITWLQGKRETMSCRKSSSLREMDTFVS
In words: Angiotensin II receptor antagonist activity was determined by 50% inhibition of specific binding of [3H]angiotensin II (2 nM) to rat adrenal cortical microsomes.

Test [1] deals with Rattus norvegicus. Kind of test: The compound was tested for antihypertensive activity in renal hypertensive rat after intravenous administration. It is filed as functional.
Test [2] has as its system Rattus norvegicus. In words: The compound was tested for antihypertensive activity in renal hypertensive rat after oral administration. It counts as functional.

Broadly, the IC50 is the concentration at which inhibition is half-maximal.

Take `CCCc1nc(C(F)(F)C(F)(F)C(F)(F)F)c(CO)n1Cc1ccc(-c2ccccc2-c2nn[nH]n2)cc1`: at Angiotensin II receptor, the concentration for half-maximal inhibition (IC50) came to 13 nM.
On the same count and under the same terms, in the case of `CCCc1nc(C(F)(F)C(F)(F)F)c(CO)n1Cc1ccc(-c2ccccc2C(=O)O)cc1` it was 48 nM.
Still for that read-out and setting: under `CCCc1nc(C(F)(F)C(F)(F)F)c(CO)n1Cc1ccc(-c2ccccc2-c2nn[nH]n2)cc1` stands 1.2 nM.
The same measure, in the same setting: under `CCCc1nc(C(F)(F)C(F)(F)C(F)(F)C(F)(F)C(F)(F)C(F)(F)F)c(CO)n1Cc1ccc(-c2ccccc2C(=O)O)cc1` stands 2500 nM.
At Angiotensin II receptor, `CCCc1nc(C(F)(F)F)c(CO)n1Cc1ccc(-c2ccccc2-c2nn[nH]n2)cc1` displayed a concentration for half-maximal inhibition (IC50) of 6.4 nM.
For `CCCc1nc(C(F)(F)C(F)(F)C(F)(F)F)c(C(=O)O)n1Cc1ccc(-c2ccccc2-c2nn[nH]n2)cc1`, the ED30 in the test with Rattus norvegicus [1] was 0.62 mg/kg.
On to `CCCc1nc(C(F)(F)F)c(CO)n1Cc1ccc(-c2ccccc2C(=O)O)cc1`, for which the IC50 at Angiotensin II receptor came to 130 nM.
On the same count and under the same terms, in the case of `CCCc1nc(C(F)(F)C(F)(F)C(F)(F)F)c(CO)n1Cc1ccc(-c2ccccc2C(=O)O)cc1` it was 74 nM; in that of `CCCc1nc(C(F)(F)C(F)(F)C(F)(F)C(F)(F)F)c(CO)n1Cc1ccc(-c2ccccc2C(=O)O)cc1`, 290 nM.
For `CCCc1nc(C(F)(F)F)c(C(=O)O)n1Cc1ccc(-c2ccccc2-c2nn[nH]n2)cc1`, the results for the ED30 in the test on Rattus norvegicus [2] and in the test with Rattus norvegicus [1] were 0.79 mg/kg and 0.01 mg/kg, respectively.
With `CCCc1nc(C(F)(F)C(F)(F)F)c(C(=O)O)n1Cc1ccc(-c2ccccc2-c2nn[nH]n2)cc1`, the ED30 with Rattus norvegicus [2] was found to be 0.21 mg/kg; in the test on Rattus norvegicus [1], 0.042 mg/kg.
Consider `CCCCc1nc(Cl)c(C(=O)O)n1Cc1ccc(-c2ccccc2-c2nn[nH]n2)cc1` [CARBOXYLIC ACID METABOLITE], for which the ED30 turned out to be 0.66 mg/kg in the test with Rattus norvegicus [2] and 0.038 mg/kg in the test on Rattus norvegicus [1].
